Laboratory results as given in US12453709B2, “Compositions and methods for treating autism” (priority 2013, dated 2025).

Tests used:
Type in all cases: in vivo, human
patients with autism = assay: Example 5: open-label evaluation of L1-79 (ABC-C, ADOS-2)
Experimental: L1-79 was used anecdotally in two patients followed by a more structured evaluation in 8 additional patients with autism. All patients were administered a starting dose of L1-79 of 90 mg TID for a minimum of 3 months. During the evaluation doses as high as 400 mg TID were used. A summary of data available on these 10 patients was provided in the Summary of Clinical Efficacy, Use of L1-79 to treat autism, submitted to IND 128673, sequence number 0005.

[1] = test system: patients qualified under the DSM-5 definition of autism; assay: Example 4: DSM-V score; design: DSM-V TOTAL / DSM-V social / DSM-V communication / DSM-V relationships / DSM-V behavior: scale not given here; settings: for DSM V relationships / DSM V communication / DSM V social / DSM V behavior / DSM V TOTAL: PT RS; for DSM V relationships: initial 1; for DSM V communication / DSM V social: initial 5; for DSM V TOTAL: initial 21
Experimental: α-methyl-DL tyrosine (AMPT) was administered to 3 patients. This group of patients was qualified under the DSM-5 definition of autism and treated. The Aberrant Behavior Checklist-Community (ABC-C), Autism Diagnostic Observation Schedule (ADOS), Conners Parent Rating Scale (CPRS), and General Clinical Impressions scale were used to assess the disease. Videos were taken at each visit.

[2] = test system: male patients diagnosed with autism; assay: Study HT 02-121: ECGs and laboratory evaluations
Experimental: The first five patients in each cohort were assigned to receive active medication in an open-label fashion. The patients were treated identically to the randomized patients with the following exceptions: (1) blood samples were drawn at baseline and 1 hour after dosing, and at Week 1, 2, 3 and 4 treatment visits 1 hour after dosing to determine the PK of L1-79, (2) EKGs were assessed at baseline and within 3-days prior to the Week 1, 2, 3 and 4 treatment visits as well as the 1-week and 4-week post-dosing follow-up visits, (3) vital signs, physical exams, and ASD assessments were performed at 1-week postdosing visit, (4) blood and urine samples were drawn at baseline and at Week 1, 2, 3 and 4 treatment visits 1 hour after dosing as well as the 1-week and 4-week post-dosing follow-up visits for safety analyses.
Safety was the primary endpoint of the study. The following safety endpoints were assessed: ECGs, physical exams, laboratory evaluations (hematology, chemistry and urinalysis), vital signs, including orthostatic blood pressure, adverse events (AEs) and concomitant medications.
Of note was the observation that half (50%) of the patients on L1-79 developed crystalluria compared to 30% of placebo treated patients. Of those that developed crystalluria during the study, approximately half (50%) had concentrated urine (specific gravity>1.025). […]

SMILES: CC(N)(Cc1ccc(O)cc1)C(=O)O (racemic) [L1-79, α-methyl-DL-tyrosine]
- effect of longer treatment on core symptoms (patients with autism; open-label): greater magnitude of therapeutic benefits
- ABC-C domains (patients with autism; open-label, 10 patients): consistent improvements
- average reduction in the ADOS-2 (patients with autism; open-label, 10 patients, from 90 mg TID, minimum 3 months): 30%
- ADOS-2 decrease in one child (loss of autism diagnosis) (patients with autism; open-label, one child): 60%
- benefits after discontinuation (patients with autism; study drug discontinued): not all of the benefits regressed
- DSM-V social ([1]; PT LR, Day 7, initial 9): 5
- DSM-V communication ([1]; PT LR, Day 7, initial 10): 4
- DSM-V relationships ([1]; PT LR, Day 7, initial 11): 4
- DSM-V behavior ([1]; PT LR, Day 7, initial 12): 12
- DSM-V TOTAL ([1]; PT LR, Day 7, initial 42): 27
- DSM-V social ([1]; PT LR, Day 14, initial 9): 3
- DSM-V communication ([1]; PT LR, Day 14, initial 10): 3
- DSM-V relationships ([1]; PT LR, Day 14, initial 11): 3
- DSM-V behavior ([1]; PT LR, Day 14, initial 12): 12
- DSM-V TOTAL ([1]; PT LR, Day 14, initial 42): 21
- DSM-V social ([1]; PT LR, Day 21, initial 9): 2
- DSM-V communication ([1]; PT LR, Day 21, initial 10): 2
- DSM-V relationships ([1]; PT LR, Day 21, initial 11): 2
- DSM-V behavior ([1]; PT LR, Day 21, initial 12): 12
- DSM-V TOTAL ([1]; PT LR, Day 21, initial 42): 18
- DSM-V social ([1]; PT LR, Day 28, initial 9): 2
- DSM-V communication ([1]; PT LR, Day 28, initial 10): 2
- DSM-V relationships ([1]; PT LR, Day 28, initial 11): 2
- DSM-V behavior ([1]; PT LR, Day 28, initial 12): 12
- DSM-V TOTAL ([1]; PT LR, Day 28, initial 42): 18
- DSM V relationships ([1]; Day 7): 0
- DSM V communication ([1]; Day 7): 4
- DSM V social ([1]; Day 7): 3
- DSM V behavior ([1]; Day 7, initial 10): 8
- DSM V TOTAL ([1]; Day 7): 15
- DSM V relationships ([1]; Day 14): 0
- DSM V communication ([1]; Day 14): 1.5
- DSM V social ([1]; Day 14): 1.5
- DSM V behavior ([1]; Day 14, initial 10): 5
- DSM V TOTAL ([1]; Day 14): 8
- DSM V relationships ([1]; Day 21): 0
- DSM V communication ([1]; Day 21): 1.5
- DSM V social ([1]; Day 21): 1
- DSM V behavior ([1]; Day 21, initial 10): 4
- DSM V TOTAL ([1]; Day 21): 6.5
- DSM V relationships ([1]; Day 28): 0
- DSM V communication ([1]; Day 28): 1.5
- DSM V social ([1]; Day 28): 1
- DSM V behavior ([1]; Day 28, initial 10): 3
- DSM V TOTAL ([1]; Day 28): 5.5
- DSM-V communication ([1]; PT WC, Day 7, initial 3): 0
- DSM-V relationships ([1]; PT WC, Day 7, initial 6): 2
- DSM-V social ([1]; PT WC, Day 7, initial 6): 6
- DSM-V behavior ([1]; PT WC, Day 7, initial 11): 9
- DSM-V TOTAL ([1]; PT WC, Day 7, initial 26): 17
- DSM-V communication ([1]; PT WC, Day 14, initial 3): 0
- DSM-V relationships ([1]; PT WC, Day 14, initial 6): 2
- DSM-V social ([1]; PT WC, Day 14, initial 6): 4
- DSM-V behavior ([1]; PT WC, Day 14, initial 11): 8
- DSM-V TOTAL ([1]; PT WC, Day 14, initial 26): 14
- DSM-V communication ([1]; PT WC, Day 21, initial 3): 0
- DSM-V relationships ([1]; PT WC, Day 21, initial 6): 2
- DSM-V social ([1]; PT WC, Day 21, initial 6): 2
- DSM-V behavior ([1]; PT WC, Day 21, initial 11): 8
- DSM-V TOTAL ([1]; PT WC, Day 21, initial 26): 12
- DSM-V communication ([1]; PT WC, Day 28, initial 3): 0
- DSM-V relationships ([1]; PT WC, Day 28, initial 6): 2
- DSM-V social ([1]; PT WC, Day 28, initial 6): 2
- DSM-V behavior ([1]; PT WC, Day 28, initial 11): 7
- DSM-V TOTAL ([1]; PT WC, Day 28, initial 26): 11
- changes from baseline EKGs ([2]; any of the patients): No clinically significant changes
- patients who developed crystalluria ([2]; patients on L1-79, placebo 30%): 50%
